Converted amounts (≈) assume the structure as drawn. The source made the active and inactive calls. The rule behind the calls is not given here.
The compounds below were run on Staphylococcus aureus (assay: Antibacterial activity against methicillin-resistant Staphylococcus aureus by broth microdilution assay).
Format: functional
Work on CCCCCCCCCCCCSc1nnc(CS(=O)(=O)c2ccc(NC(C)=O)cc2)o1 yielded an MIC of 128 µg/mL (≈ 266 µM). For CC(=O)Nc1ccc(S(=O)(=O)Cc2nnc(SCC3CC3)o2)cc1, the MIC was 8 µg/mL (≈ 21.8 µM). CC(=O)Nc1ccc(S(=O)(=O)Cc2nnc(S)o2)cc1 was tested, and the MIC was 256 µg/mL (≈ 817 µM). CCn1cc(C(=O)O)c(=O)c2cc(F)c(N3CCNCC3)cc21 [NORFLOXACIN] was tested, and the MIC was 16 µg/mL (≈ 50.1 µM).

The compounds below were run on Enterococcus faecalis (assay: Antibacterial activity against Enterococcus faecalis by broth microdilution assay).
Format: functional
For CCCCCCCCCCCCSc1nnc(CS(=O)(=O)c2ccc(NC(C)=O)cc2)o1, the MIC was 128 µg/mL (≈ 266 µM). CC(=O)Nc1ccc(S(=O)(=O)Cc2nnc(SCC3CC3)o2)cc1 showed an MIC of 64 µg/mL (≈ 174 µM). CC(=O)Nc1ccc(S(=O)(=O)Cc2nnc(S)o2)cc1 showed an MIC of 128 µg/mL (≈ 408 µM). CCn1cc(C(=O)O)c(=O)c2cc(F)c(N3CCNCC3)cc21 [NORFLOXACIN] showed an MIC of 8 µg/mL (≈ 25.1 µM).

The compounds below were run on Staphylococcus aureus (assay: Antibacterial activity against Staphylococcus aureus by broth microdilution assay).
Format: functional
With CCCCCCCCCCCCSc1nnc(CS(=O)(=O)c2ccc(NC(C)=O)cc2)o1 the MIC was 256 µg/mL (≈ 531 µM). Work on CC(=O)Nc1ccc(S(=O)(=O)Cc2nnc(SCC3CC3)o2)cc1 yielded an MIC of 128 µg/mL (≈ 348 µM). CC(=O)Nc1ccc(S(=O)(=O)Cc2nnc(S)o2)cc1 showed an MIC of 256 µg/mL (≈ 817 µM). CCn1cc(C(=O)O)c(=O)c2cc(F)c(N3CCNCC3)cc21 [NORFLOXACIN] showed an MIC of 4 µg/mL (≈ 12.5 µM).

What follows are compounds tested on Staphylococcus aureus (assay: Antibacterial activity against Staphylococcus aureus ATCC 25923 by broth microdilution assay).
Format: functional
For CCCCCCCCCCCCSc1nnc(CS(=O)(=O)c2ccc(NC(C)=O)cc2)o1, the MIC was 256 µg/mL (≈ 531 µM). CC(=O)Nc1ccc(S(=O)(=O)Cc2nnc(SCC3CC3)o2)cc1 gave an MIC of 64 µg/mL (≈ 174 µM). With CC(=O)Nc1ccc(S(=O)(=O)Cc2nnc(S)o2)cc1 the MIC was 256 µg/mL (≈ 817 µM). Work on CCn1cc(C(=O)O)c(=O)c2cc(F)c(N3CCNCC3)cc21 [NORFLOXACIN] yielded an MIC of 8 µg/mL (≈ 25.1 µM).

These compounds were tested on Staphylococcus aureus (assay: Antibacterial activity against Staphylococcus aureus ATCC 29213 by broth microdilution assay).
Format: functional
Compound CCCCCCCCCCCCSc1nnc(CS(=O)(=O)c2ccc(NC(C)=O)cc2)o1 has an MIC of 256 µg/mL (≈ 531 µM). In the case of CC(=O)Nc1ccc(S(=O)(=O)Cc2nnc(SCC3CC3)o2)cc1, the MIC is reported as 64 µg/mL (≈ 174 µM). With CC(=O)Nc1ccc(S(=O)(=O)Cc2nnc(S)o2)cc1 the MIC was 256 µg/mL (≈ 817 µM). With CCn1cc(C(=O)O)c(=O)c2cc(F)c(N3CCNCC3)cc21 [NORFLOXACIN] the MIC was 8 µg/mL (≈ 25.1 µM).

What follows are compounds tested on Klebsiella pneumoniae (assay: Antibacterial activity against Klebsiella pneumonia by broth microdilution assay).
Format: functional
Work on CCCCCCCCCCCCSc1nnc(CS(=O)(=O)c2ccc(NC(C)=O)cc2)o1 yielded an MIC of 64 µg/mL (≈ 133 µM). Work on CC(=O)Nc1ccc(S(=O)(=O)Cc2nnc(SCC3CC3)o2)cc1 yielded an MIC of 128 µg/mL (≈ 348 µM). CC(=O)Nc1ccc(S(=O)(=O)Cc2nnc(S)o2)cc1 was tested, and the MIC was 256 µg/mL (≈ 817 µM). CCn1cc(C(=O)O)c(=O)c2cc(F)c(N3CCNCC3)cc21 [NORFLOXACIN] was tested, and the MIC was 16 µg/mL (≈ 50.1 µM).

Each compound was assayed on Escherichia coli (assay: Antibacterial activity against Escherichia coli by broth microdilution assay).
Format: functional
Work on CCCCCCCCCCCCSc1nnc(CS(=O)(=O)c2ccc(NC(C)=O)cc2)o1 yielded an MIC of 256 µg/mL (≈ 531 µM). Compound CC(=O)Nc1ccc(S(=O)(=O)Cc2nnc(SCC3CC3)o2)cc1 has an MIC of 8 µg/mL (≈ 21.8 µM). CC(=O)Nc1ccc(S(=O)(=O)Cc2nnc(S)o2)cc1 gave an MIC of 256 µg/mL (≈ 817 µM). With CCn1cc(C(=O)O)c(=O)c2cc(F)c(N3CCNCC3)cc21 [NORFLOXACIN] the MIC was 8 µg/mL (≈ 25.1 µM).

Each compound was assayed on Escherichia coli (assay: Antibacterial activity against Escherichia coli ATCC 25922 by broth microdilution assay).
Format: functional
Compound CCCCCCCCCCCCSc1nnc(CS(=O)(=O)c2ccc(NC(C)=O)cc2)o1 has an MIC of 256 µg/mL (≈ 531 µM). With CC(=O)Nc1ccc(S(=O)(=O)Cc2nnc(SCC3CC3)o2)cc1 the MIC was 128 µg/mL (≈ 348 µM). With CC(=O)Nc1ccc(S(=O)(=O)Cc2nnc(S)o2)cc1 the MIC was 256 µg/mL (≈ 817 µM). CCn1cc(C(=O)O)c(=O)c2cc(F)c(N3CCNCC3)cc21 [NORFLOXACIN] was tested, and the MIC was 8 µg/mL (≈ 25.1 µM).

The compounds below were run on Pseudomonas aeruginosa (assay: Antibacterial activity against Pseudomonas aeruginosa by broth microdilution assay).
Format: functional
Compound CCCCCCCCCCCCSc1nnc(CS(=O)(=O)c2ccc(NC(C)=O)cc2)o1 has an MIC of 256 µg/mL (≈ 531 µM). CC(=O)Nc1ccc(S(=O)(=O)Cc2nnc(SCC3CC3)o2)cc1 gave an MIC of 64 µg/mL (≈ 174 µM). Compound CC(=O)Nc1ccc(S(=O)(=O)Cc2nnc(S)o2)cc1 has an MIC of 256 µg/mL (≈ 817 µM). CCn1cc(C(=O)O)c(=O)c2cc(F)c(N3CCNCC3)cc21 [NORFLOXACIN] showed an MIC of 4 µg/mL (≈ 12.5 µM).

Each compound was assayed on Pseudomonas aeruginosa (assay: Antibacterial activity against Pseudomonas aeruginosa ATCC 27853 by broth microdilution assay).
Format: functional
CCCCCCCCCCCCSc1nnc(CS(=O)(=O)c2ccc(NC(C)=O)cc2)o1 showed an MIC of 256 µg/mL (≈ 531 µM). In the case of CC(=O)Nc1ccc(S(=O)(=O)Cc2nnc(SCC3CC3)o2)cc1, the MIC is reported as 64 µg/mL (≈ 174 µM). Compound CC(=O)Nc1ccc(S(=O)(=O)Cc2nnc(S)o2)cc1 has an MIC of 256 µg/mL (≈ 817 µM). CCn1cc(C(=O)O)c(=O)c2cc(F)c(N3CCNCC3)cc21 [NORFLOXACIN] was tested, and the MIC was 8 µg/mL (≈ 25.1 µM).

These compounds were tested on Acinetobacter baumannii (assay: Antibacterial activity against Acinetobacter baumannii by broth microdilution assay).
Format: functional
With CCCCCCCCCCCCSc1nnc(CS(=O)(=O)c2ccc(NC(C)=O)cc2)o1 the MIC was 256 µg/mL (≈ 531 µM). CC(=O)Nc1ccc(S(=O)(=O)Cc2nnc(SCC3CC3)o2)cc1 gave an MIC of 64 µg/mL (≈ 174 µM). CC(=O)Nc1ccc(S(=O)(=O)Cc2nnc(S)o2)cc1 showed an MIC of 256 µg/mL (≈ 817 µM). Work on CCn1cc(C(=O)O)c(=O)c2cc(F)c(N3CCNCC3)cc21 [NORFLOXACIN] yielded an MIC of 8 µg/mL (≈ 25.1 µM).

Each compound was assayed on Staphylococcus aureus (assay: Antibacterial activity against methicillin-resistant Staphylococcus aureus assessed as reduction in bacterial growth measured after 16 passages).
Format: functional, organism-based
In the case of CCn1cc(C(=O)O)c(=O)c2cc(F)c(N3CCNCC3)cc21 [NORFLOXACIN], the Activity is reported as “inactive”.

— ChEMBL document CHEMBL4814033, “Unique para-aminobenzenesulfonyl oxadiazoles as novel structural potential membrane active antibacterial agents towards drug-resistant methicillin resistant Staphylococcus aureus” (2021)
